# According to patent publication US11672871B2, “Peptide oligonucleotide conjugates” (Sarepta Therapeutics, Inc., priority 2015, dated 2023):
# Tested on: HeLa-654 cells
# Experiment: HeLa cell assay: e-GFP fluorescence from exon skipping / cellular delivery, by flow cytometry
# Format: cell-based
# Details: Accuri C6 flow cytometer, signal reflects exon skipping and cellular uptake
# Description: The height of the green fluorescent signal bars indicate different intensities based on the level of exon skipping that occurs in the nucleus of HeLa-654 cells, whether the cells are treated or untreated with test compounds. The signal intensity or size of the bar also corresponds to the effectiveness of cellular uptake (that is, delivery into the cell). […] The various treatment regimens include continuous treatment of HeLa-654 cells over time or pulse-chase treatments where a test compound is incubated with cells and then after a period of time (3 hours) is washed away from the cells and fresh, test compound-free media is added.
# Results: The baseline activity of unconjugated PMO and untreated cells is shown. The peptide/PMO (PPMO) conjugates of the present disclosure all show greater cellular uptake than: 1) unconjugated PMO, and 2) untreated cells (which reveal the green fluorescent background signal). This difference in fluorescence intensity between the peptide/PMO conjugates of the present invention and the background or unconjugated-PMO indicates significant pharmacological activity of the stapled peptide/PMO conjugates.
substance,measurement,value
"PPMO 3: (i, i+4) hexafluorobenzene-stapled peptide-PMO conjugate, sequence SEQ ID NO: 9 (GCTATTACCTTAACCCAG; all phosphorodiamidate morpholino (PMO); stapled cell-penetrating peptide conjugated to PMO)",Mean FL1-H (mean fluorescence intensity of e-GFP),"123,401.08"
